One data set addresses T1, Y2 receptor (Homo sapiens, UniProt P49146).
T1 sequence (P49146 1-381): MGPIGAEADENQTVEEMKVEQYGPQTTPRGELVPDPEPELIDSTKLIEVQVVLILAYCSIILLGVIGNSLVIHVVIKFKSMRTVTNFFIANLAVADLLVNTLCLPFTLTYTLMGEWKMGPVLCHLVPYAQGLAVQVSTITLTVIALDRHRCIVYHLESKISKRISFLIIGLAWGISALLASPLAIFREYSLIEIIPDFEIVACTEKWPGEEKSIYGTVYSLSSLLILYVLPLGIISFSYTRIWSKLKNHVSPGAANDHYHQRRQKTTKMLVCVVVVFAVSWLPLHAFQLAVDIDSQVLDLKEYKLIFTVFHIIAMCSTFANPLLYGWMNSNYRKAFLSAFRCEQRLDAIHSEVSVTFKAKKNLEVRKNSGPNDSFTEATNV
The data set can be described thus: Y2 receptor binding assay ([125I]PYY, membrane protein). Particulars: [125I]PYY, membrane protein; read-out: hNPY2 IC50. An outline of the steps: (§1)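 Filtration binding with membrane protein and drug dilution, 2 h at room temperature with mixing, radioactivity counted by gamma or scintillation. Y2: 25 pM [125I]PYY in Krebs-Ringer bicarbonate pH 7.4 with 0.01% BSA, nonspecific by 1 μM NPY. Y4/PP1: 50 pM [125I]hPP in HEPES-buffered saline pH 7.4 with protease inhibitors and 0.3% BSA, nonspecific by 1 μM hPP.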

The target of a further data set is human Y4/PP1 receptor (Homo sapiens, UniProt P50391). Nature of the data set: Human Y4/PP1 receptor binding assay ([125I]human PP, membrane protein). Conditions: [125I]human PP, membrane protein; read-out: hNPY4 IC50. An outline of the steps: as §1
The next data set deals with T2, Human NPY1 receptor (Homo sapiens, UniProt P25929).
T2 construct: host or cells: SK-N-MC cells
T2 sequence (P25929 1-384): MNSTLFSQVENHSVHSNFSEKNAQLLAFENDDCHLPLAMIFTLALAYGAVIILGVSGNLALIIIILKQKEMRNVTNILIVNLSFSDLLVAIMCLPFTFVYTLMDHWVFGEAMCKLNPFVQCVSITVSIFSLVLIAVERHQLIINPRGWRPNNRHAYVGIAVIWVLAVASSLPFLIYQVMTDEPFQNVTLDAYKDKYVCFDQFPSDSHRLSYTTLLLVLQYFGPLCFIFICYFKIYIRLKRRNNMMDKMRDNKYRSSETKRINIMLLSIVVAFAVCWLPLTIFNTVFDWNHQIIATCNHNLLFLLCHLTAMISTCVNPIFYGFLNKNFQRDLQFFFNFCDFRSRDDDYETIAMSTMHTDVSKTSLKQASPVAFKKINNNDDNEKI
Nature of the data set: Human NPY1 receptor binding assay ([125I]PYY, SK-N-MC cells). Particulars: [125I]PYY, SK-N-MC cells; read-out: hNPYI IC50. The protocol:
A. Human NPY1 Receptor Binding Assay
This is a modification of Gordon et al., (J. Neurochem. 55:506-513, 1990). SK-N-MC cell (ATCC, Rockville, Md.) were plated in 24-well plates. Once confluent, cells were rinsed with Dulbecco's phosphate buffered saline (DPBS). Cells were then preincubated in binding buffer containing serum-free DMEM, 25 mM HEPES (pH 7.3), 0.5% bovine serum albumin (BSA), 0.1% bacitracin and 0.1 mM phenylmethylsulfonylfluoride for 30 minutes at room temperature. Drug dilution and [125I]PYY (˜50 pM: NEN-DuPont) were added to the wells, and the cells were incubated for an additional 3 hours at room temperature, followed by rinsing with ice-cold DPBS. Nonspecific binding was defined with 1 μM NPY. After lysing the cells with 1% Triton X-100, the amount of radioactivity in the lysates was quantitated with a gamma counter.

A further data set addresses T3, Human NPY5 receptor (Homo sapiens, UniProt Q15761).
T3 sequence (Q15761 1-445): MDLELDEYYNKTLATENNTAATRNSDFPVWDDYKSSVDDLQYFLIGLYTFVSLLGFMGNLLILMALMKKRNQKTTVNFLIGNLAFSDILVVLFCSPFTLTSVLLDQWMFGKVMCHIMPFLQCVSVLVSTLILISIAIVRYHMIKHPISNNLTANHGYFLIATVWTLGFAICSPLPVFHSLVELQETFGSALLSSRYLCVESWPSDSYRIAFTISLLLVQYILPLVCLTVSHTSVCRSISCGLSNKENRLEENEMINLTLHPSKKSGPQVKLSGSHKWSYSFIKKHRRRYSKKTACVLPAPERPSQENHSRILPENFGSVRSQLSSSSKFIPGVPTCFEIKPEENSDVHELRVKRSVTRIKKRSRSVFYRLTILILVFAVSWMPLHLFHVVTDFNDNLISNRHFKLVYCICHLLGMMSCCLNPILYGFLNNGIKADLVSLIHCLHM
The data set can be described thus: Human NPY5 receptor binding assay ([125I]PYY, membrane protein). Conditions: [125I]PYY, read-out: hNPY5 IC50. An outline of the steps:
(§2)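 Radioligand displacement: 75-100 pM [125I]PYY (porcine), membranes, drug dilution; 2 h, RT, mixing; 25 mM Tris pH 7.4 with 0.1% BSA, 0.5 mg/ml bacitracin. NSB 1 μM PYY. Filtration on PEI-treated GF/C, ice-cold buffer wash, gamma or scintillation counting.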

Another data set addresses T4, Rat NPY5 receptor (Rattus norvegicus, UniProt Q63634).
T4 sequence (Q63634 1-445): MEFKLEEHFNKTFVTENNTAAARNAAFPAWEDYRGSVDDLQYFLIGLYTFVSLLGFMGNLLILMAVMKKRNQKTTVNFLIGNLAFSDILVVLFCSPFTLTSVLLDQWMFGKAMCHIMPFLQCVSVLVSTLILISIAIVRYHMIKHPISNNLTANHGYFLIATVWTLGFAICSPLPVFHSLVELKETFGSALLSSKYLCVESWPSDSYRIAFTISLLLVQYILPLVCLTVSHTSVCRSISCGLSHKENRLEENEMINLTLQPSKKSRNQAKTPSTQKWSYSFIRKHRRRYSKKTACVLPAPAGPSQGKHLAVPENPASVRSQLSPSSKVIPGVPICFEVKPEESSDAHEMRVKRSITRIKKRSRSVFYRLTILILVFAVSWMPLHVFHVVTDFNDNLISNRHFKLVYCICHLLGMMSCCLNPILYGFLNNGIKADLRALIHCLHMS
The data set can be described thus: Rat NPY5 receptor binding assay ([125I]PYY, membrane protein). Conditions: [125I]PYY, read-out: rNPY5 IC50. An outline of the steps:
as §2

The results in this text go back to patent US6410792B1, “Amide derivatives and methods for using the same as selective neuropeptide Y receptor antagonists” (Bayer Corporation, priority 1997, dated 2002).

Structures are written as SMILES.

human Y4/PP1 receptor, sequence (P50391 whole entry): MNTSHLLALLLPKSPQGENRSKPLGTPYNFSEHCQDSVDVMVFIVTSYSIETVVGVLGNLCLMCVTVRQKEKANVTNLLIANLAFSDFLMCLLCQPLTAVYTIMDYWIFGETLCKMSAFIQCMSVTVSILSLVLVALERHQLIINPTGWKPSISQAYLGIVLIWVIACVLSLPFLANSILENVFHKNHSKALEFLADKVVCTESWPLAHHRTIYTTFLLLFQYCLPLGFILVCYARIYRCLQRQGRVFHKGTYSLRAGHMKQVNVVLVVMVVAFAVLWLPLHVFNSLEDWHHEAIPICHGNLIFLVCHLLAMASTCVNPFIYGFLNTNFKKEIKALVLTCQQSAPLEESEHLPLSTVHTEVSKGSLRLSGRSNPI

One may read the IC50 as the point on the concentration scale where inhibition reaches its midpoint. The melting point is the temperature of the solid-liquid transition. `O=C(CN1CCC(n2c(=O)[nH]c3ccccc32)CC1)NCC1CCCO1` (stereo not shown) [Compound 285, 2-[4-(2-Oxo-2,3-dihydro-benzoimidazol-1-yl)-piperidin-1-yl]-N-(tetrahydro-furan-2-ylmethyl)-acetamide] had a melting point of 179 to 180 °C. Moreover, the IC50 on Y2 receptor is above 5 µM. For the same molecule, the IC50 on human Y4/PP1 receptor was above 5 µM.
Take `Cl.O=C(CN1CCC(n2c(=O)[nH]c3ccccc32)CC1)N1CCCCCCC1` [Compound 305, 1-[1-(2-Azocan-1-yl-2-oxo-ethyl)-piperidin-4-yl]-1,3-dihydro-benzoimidazol-2-one; hydrochloride]: the melting point came out at 158 °C. In addition, the IC50 on Y2 receptor is above 5 µM. Moreover, the IC50 on human Y4/PP1 receptor is above 5 µM.
With `O=C(CN1CCC(n2c(=O)[nH]c3ccccc32)CC1)N1CCCCCC1` [Compound 309, 1-[1-(2-Azepan-1-yl-2-oxo-ethyl)-piperidin-4-yl]-1,3-dihydro-benzoimidazol-2-one], the melting point worked out at 166 °C. Further, the IC50 on Y2 receptor is above 5 µM. The IC50 at human Y4/PP1 receptor is above 5 µM.
For the molecule `O=C(CN1CCC(n2c(=O)[nH]c3ccccc32)CC1)NC1CCCC1.O=C(O)C(=O)O` [Compound 288, N-Cyclopentyl-2-[4-(2-oxo-2,3-dihydro-benzoimidazol-1-yl)-piperidin-1-yl]-acetamide; compound with oxalic acid], the melting point lay within 217 to 218 °C. Besides, at Y2 receptor, the 50% inhibitory concentration (IC50) is above 5 µM. Also, the IC50 at human Y4/PP1 receptor was above 5 µM.
The molecule `CC(C)OCCCNC(=O)CN1CCC(n2c(=O)[nH]c3ccccc32)CC1` [Compound 289, N-(3-Isopropoxy-propyl)-2-[4-(2-oxo-2,3-dihydro-benzoimidazol-1-yl)-piperidin-1-yl]-acetamide] came in with a melting point of 67 to 68 °C.
Take `O.O=C(CN1CCC(n2c(=O)[nH]c3ccccc32)CC1)Nc1ccc(-c2cnco2)cc1` (hydrate or solvate) [Compound 267, N-(4-Oxazol-5-yl-phenyl)-2-[4-(2-oxo-2,3-dihydro-benzoimidazol-1-yl)-piperidin-1-yl]-acetamide; hydrate]: the melting point was in the range of 177 to 178 °C.
Regarding `O=C(CN1CCC(n2c(=O)[nH]c3ccccc32)CC1)Nc1ccc2c(c1)Cc1ccccc1-2` [Compound 325, N-(9H-Fluoren-2-yl)-2-[4-(2-oxo-2,3-dihydro-benzoimidazol-1-yl)-piperidin-1-yl]-acetamide], the IC50 at Human NPY1 receptor was above 5 µM; on Y2 receptor, above 5 µM; at human Y4/PP1 receptor, above 5 µM; at Human NPY5 receptor, 0.006 µM; on Rat NPY5 receptor, 0.004 µM.
On to `CN(C)c1cccc(NC(=O)CN2CCC(n3c(=O)[nH]c4ccccc43)CC2)c1` [Compound 338, reference compound], for which the IC50 was above 5 µM at Human NPY1 receptor; above 5 µM at Y2 receptor; above 5 µM at human Y4/PP1 receptor; 0.91 µM at Human NPY5 receptor; 1.2 µM on Rat NPY5 receptor.
On to `Cl.O=C(CN1CCC(n2c(=O)[nH]c3ccccc32)CC1)Nc1ccc(C(=O)C(=O)c2ccccc2)cc1` [Compound 265, 2-[4-(2-Oxo-2,3-dihydro-benzoimidazol-1-yl]-N-[4-(oxo-phenyl-acetyl)-phenyl]-acetamide; hydrochloride], for which the IC50 on Human NPY1 receptor was above 5 µM; on Y2 receptor it was above 5 µM; on human Y4/PP1 receptor, above 5 µM; on Human NPY5 receptor it was 0.005 µM; on Rat NPY5 receptor it was 0.005 µM.
In the case of `CC(=O)Nc1ccc(NC(=O)CN2CCC(n3c(=O)[nH]c4ccccc43)CC2)cc1` [Compound 351, N-(4-Acetylamino-phenyl)-2-[4-(2-oxo-2,3-dihydro-benzoimidazol 1-yl)-piperidin-1-yl]-acetamide, reference compound], the IC50 was above 5 µM on Human NPY1 receptor; above 5 µM at Y2 receptor; above 5 µM at human Y4/PP1 receptor; 0.58 µM on Human NPY5 receptor; 0.979 µM at Rat NPY5 receptor.
